Values quoted from earlier work, collected in patent publication US20080108695A1, “Method of Treating Asthma, Allergic Rhinitis, and Skin Disorders” (Alcon Manufacturing Ltd., priority 2006, published 2008).

How the values were obtained:
neutrophils = details: potency compared with lipoxin A4; literature report of Lee et al.
cysLT1 = target: T1, cysLT1 (Homo sapiens, UniProt Q9Y271); details: high affinity receptor for LTD4; background statement
T1 sequence (Q9Y271 1-337): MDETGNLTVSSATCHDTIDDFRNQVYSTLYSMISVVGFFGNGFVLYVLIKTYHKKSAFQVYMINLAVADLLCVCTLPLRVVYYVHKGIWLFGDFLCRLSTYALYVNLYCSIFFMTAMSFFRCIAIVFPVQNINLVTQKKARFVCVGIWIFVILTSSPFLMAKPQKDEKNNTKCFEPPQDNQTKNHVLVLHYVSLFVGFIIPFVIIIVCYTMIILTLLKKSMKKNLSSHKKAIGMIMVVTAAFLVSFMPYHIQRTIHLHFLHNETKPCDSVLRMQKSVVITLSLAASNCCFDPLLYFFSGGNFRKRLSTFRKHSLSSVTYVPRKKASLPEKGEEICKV

[1] = target: T2, ALXR (formyl peptide receptor FPRL-1) (Homo sapiens, UniProt P25090); details: lipoxin A4 cognate receptor; background statement
T2 sequence (P25090 1-351): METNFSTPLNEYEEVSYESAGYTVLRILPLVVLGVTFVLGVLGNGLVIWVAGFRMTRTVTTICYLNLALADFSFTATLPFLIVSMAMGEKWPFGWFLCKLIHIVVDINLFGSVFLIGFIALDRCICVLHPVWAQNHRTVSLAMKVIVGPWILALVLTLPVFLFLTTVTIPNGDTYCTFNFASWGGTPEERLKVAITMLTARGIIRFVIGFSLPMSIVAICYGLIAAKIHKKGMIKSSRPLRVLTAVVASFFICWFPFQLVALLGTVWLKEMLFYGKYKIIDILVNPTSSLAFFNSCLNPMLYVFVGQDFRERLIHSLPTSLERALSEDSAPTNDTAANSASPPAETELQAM

Row | Structure (SMILES) | inhibition of LTB4-induced chemotaxis of neutrophils (neutrophils) | binding affinity for cysLT1 (cysLT1) | binding affinity for ALXR [1]
1 | COC(=O)CCC[C@H](O)[C@H](O)CO [Compound 1] | as potently as lipoxin A4 |  | 
2 | CCCCC[C@H](O)[C@H](O)CO [Compound 2] | as potently as lipoxin A4 |  | 
3 | CCCCC[C@H](O)/C=C/C=C\C=C\C=C\[C@@H](O)[C@@H](O)CCCC(=O)O [Lipoxin A4] |  | nM affinity | nM affinity
